Assay results reported in US11179391B2, “Compound with kinase inhibitory activity and preparation method and use thereof” (priority 2017, dated 2021).

Columns and labels:
Format in all cases: biochemical
[1] = biological target: CDK4/CycD3 (Homo sapiens, UniProt P11802); assay: Determination of CDK activity (Caliper mobility shift, FAM-P8 peptide): CDK4; conditions: CDK4/CycD3; read-out: CDK4 enzymatic inhibitory activity (IC50)
Procedure: (§1) In vitro, CDK (CDK4, CDK6, CDK1, CDK2, CDK7, and CDK9) kinase activity was tested by the following method.
(§2) CDK and raw materials used here: CDK4/CycD3 (Carna, Cat. No 04-105, Lot. No 10CBS-0429 C, GST-CDK4(1-303end)/GST-CycD3(1-292end)); CDK6/cycD3 (Carna, Cat. No 04-107, Lot. No 09CBS-0622K, GST-CDK6(1-326(end))); CDK1/CyclinB (Millipore, Cat. 14-450k, Lot. No 25729U, His-CDK1+GST-cyclinB); CDK2/CycA2 (Carna, Cat. No 04-103, Lot. No 06CBS-3024, GST-CDK2 (1-298(end))); CDK7/CyclinH/MAT1 (Millipore, Cat. No 14-476M, Lot. No WAB0365-A, His-CDK7+GST-MAT1+cyclinH); CDK9/cyclinTl (Millipore, Cat. No 14-685K, Lot. No. 2476163-A, His-CDK9+cyclinTl); Peptide FAM-P8 (GL Biochem, Cat. No. 112396, Lot. No. P100804-XZ112396); ATP (Sigma, Cat. No. A7699-1G, CAS No. 987-65-5); DMSO (Sigma, Cat. No. D2650, Lot. No. 474382); EDTA (Sigma, Cat. No. E5134, CAS No. 60-00-4); 96-well plate (Corning, Cat. No. 3365, Lot. No. 22008026); 384-well plate (Corning, Cat. No. 3573, Lot. No. 12608008); Staurosporine (Sigma, Cat. No. S4400-1MG, Lot. No. 046K4080).
(§3) 1. Prepared 1× Kinase Buffer and Stop Buffer for the Test
2) 1× Kinase Base Buffer (CDK4).
(§4) 1) Diluted the compound to 50 times of the maximum concentration with 100% DMSO. For example, if the desired maximum inhibitory concentration is 10 μM, then a DMSO solution of 500 μM concentration is required.
(§5) 2) Transferred the compound to a 96-well plate and serially diluted the compound from a 100% DMSO solution at a ratio of 30 μm to 60 μm for a total of 10 concentrations gradients. 3) Transferred 100 μm of 100% DMSO to two empty wells as a no compound control and a no enzyme control.
(§6) 4) Prepared intermediate plate and transferred the compound of 10 μm concentration from the original plate to the intermediate plate, and then 90 μm of 1× kinase buffer was added and mixed by shaking for 10 min.
(§7) 4) Preparing intermediate plate and transferred the compound of […] concentration from the original plate to the intermediate plate, and then 90 μm of 1× kinase buffer was added and mixed by shaking for 10 min.
(§8) 1) Transferred 5 μm of each compound from the 96-well intermediate plate to a 384-well plate. For example, A1 of the 96-well plate was transferred to A1 and A2 of the 384-well plate. A2 of the 96-well plate was transferred to A3 and A4 of the 384-well plate, and so on.
(§9) 1) Prepared a 2.5× enzyme solution: added kinase into 1× kinase base buffer.
(§10) 2) Prepared a 2.5× peptide solution: added FAM-labeled peptide and ATP into the 1× kinase base buffer.
(§11) 3) Transferred the 2.5× enzyme solution to the assay plate: Assay plate already contained 5 μm of 10% DMSO and transferred 10 μm of 2.5× enzyme solution to each well.
(§12) 4) Incubated at room temperature for 10 min.
(§13) 5) Transferred the 2.5× peptide solution to the assay plate: added 10 μm of 2.5× peptide solution to each well of the 384-well assay plate.
(§14) 6) Kinase reaction and termination: incubated at 28° C. for a specified period and added 25 μm of stop buffer to stop the reaction.
(§15) 5. Caliper Reading: Collect Data on Caliper.
(§16) 1) Copied conversion data from Caliper program and Converted conversion values to inhibition values: Inhibition rate (%)=(1−OD value of the compound-OD value of the control well)/(OD value of the control empty-OD value of the control well)*100%.
(§17) 2) Fitted the data in XLFit excel add-in version 4.3.1 to give the corresponding IC50 values.

[2] = biological target: CDK7/CyclinH/MAT1 (Homo sapiens, UniProt P50613); assay: Determination of CDK activity (Caliper mobility shift, FAM-P8 peptide): CDK7; conditions: CDK7/CyclinH/MAT1; read-out: CDK7 enzymatic inhibitory activity (IC50)
Procedure: as §1, §2, §3
(§18) 3) 1× Kinase Base Buffer (CDK7 and 9).
as §4, §5, §6, §7, §8, §9, §10, §11, §12, §13, §14, §15, §16, §17

[3] = biological target: CDK6/cycD3 (Homo sapiens, UniProt Q00534); assay: Determination of CDK activity (Caliper mobility shift, FAM-P8 peptide): CDK6; conditions: CDK6/cycD3; read-out: CDK6 enzymatic inhibitory activity (IC50)
Procedure: as §1, §2, §3
(§19) 1) 1× Kinase Base Buffer (CDK1, 2, and 6).
as §4, §5, §6, §7, §8, §9, §10, §11, §12, §13, §14, §15, §16, §17

[4] = biological target: CDK2/CycA2 (Homo sapiens, UniProt P24941); assay: Determination of CDK activity (Caliper mobility shift, FAM-P8 peptide): CDK2; conditions: CDK2/CycA2; read-out: CDK2 enzymatic inhibitory activity (IC50)
Procedure: as §1, §3, §19, §4, §5
(§20) 1) Transferred 5 μm of each compound from the 96-well intermediate plate to a 384-well plate. […] A2 of the 96-well plate was transferred to A3 and A4 of the 384-well plate, and so on.
as §9, §10, §11, §12, §13, §14, §15, §16, §17

[5] = biological target: CDK9/cyclinTl (Homo sapiens, UniProt P50750); assay: Determination of CDK activity (Caliper mobility shift, FAM-P8 peptide): CDK9; conditions: CDK9/cyclinTl; read-out: CDK9 enzymatic inhibitory activity (IC50)
Procedure: as §1, §3, §18, §4, §5, §20, §9, §10, §11, §12, §13, §14, §15, §16, §17

[6] = biological target: CDK1/CyclinB (Homo sapiens, UniProt P06493); assay: Determination of CDK activity (Caliper mobility shift, FAM-P8 peptide): CDK1; conditions: CDK1/CyclinB; read-out: CDK1 enzymatic inhibitory activity (IC50)
Procedure: as §1, §3, §19, §4, §5, §20, §9, §10, §11, §12, §13, §14, §15, §16, §17

CDK6/cycD3, sequence (Q00534 whole entry): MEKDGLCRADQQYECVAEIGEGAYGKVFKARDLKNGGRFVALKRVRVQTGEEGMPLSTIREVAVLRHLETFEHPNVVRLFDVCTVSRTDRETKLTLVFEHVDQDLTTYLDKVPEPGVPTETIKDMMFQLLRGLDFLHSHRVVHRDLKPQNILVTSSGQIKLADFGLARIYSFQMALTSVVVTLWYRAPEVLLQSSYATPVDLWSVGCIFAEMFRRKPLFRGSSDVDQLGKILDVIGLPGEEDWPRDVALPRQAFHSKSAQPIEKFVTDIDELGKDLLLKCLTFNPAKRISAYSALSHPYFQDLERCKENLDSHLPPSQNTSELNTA
CDK6/cycD3, sequence (P30281 whole entry partner): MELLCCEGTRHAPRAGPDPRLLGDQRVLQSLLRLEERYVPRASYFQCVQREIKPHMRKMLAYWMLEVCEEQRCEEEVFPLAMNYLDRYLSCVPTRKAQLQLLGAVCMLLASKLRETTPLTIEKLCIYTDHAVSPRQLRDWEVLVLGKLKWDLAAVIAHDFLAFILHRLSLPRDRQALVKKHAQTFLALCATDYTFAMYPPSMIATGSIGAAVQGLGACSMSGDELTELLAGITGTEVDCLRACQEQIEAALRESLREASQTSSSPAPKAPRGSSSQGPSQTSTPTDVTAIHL
CDK9/cyclinTl, sequence (P50750 whole entry): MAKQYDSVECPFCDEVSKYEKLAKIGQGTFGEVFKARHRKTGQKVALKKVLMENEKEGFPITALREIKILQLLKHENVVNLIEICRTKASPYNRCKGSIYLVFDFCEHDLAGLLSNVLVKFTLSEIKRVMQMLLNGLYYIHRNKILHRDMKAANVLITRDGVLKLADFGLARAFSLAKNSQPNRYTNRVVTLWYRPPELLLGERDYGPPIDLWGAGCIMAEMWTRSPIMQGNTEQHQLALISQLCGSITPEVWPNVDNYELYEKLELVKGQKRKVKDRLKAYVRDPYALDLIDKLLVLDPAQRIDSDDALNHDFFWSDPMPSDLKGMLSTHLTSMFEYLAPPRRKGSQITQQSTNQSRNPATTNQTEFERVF
CDK9/cyclinTl, sequence (O60563 whole entry partner): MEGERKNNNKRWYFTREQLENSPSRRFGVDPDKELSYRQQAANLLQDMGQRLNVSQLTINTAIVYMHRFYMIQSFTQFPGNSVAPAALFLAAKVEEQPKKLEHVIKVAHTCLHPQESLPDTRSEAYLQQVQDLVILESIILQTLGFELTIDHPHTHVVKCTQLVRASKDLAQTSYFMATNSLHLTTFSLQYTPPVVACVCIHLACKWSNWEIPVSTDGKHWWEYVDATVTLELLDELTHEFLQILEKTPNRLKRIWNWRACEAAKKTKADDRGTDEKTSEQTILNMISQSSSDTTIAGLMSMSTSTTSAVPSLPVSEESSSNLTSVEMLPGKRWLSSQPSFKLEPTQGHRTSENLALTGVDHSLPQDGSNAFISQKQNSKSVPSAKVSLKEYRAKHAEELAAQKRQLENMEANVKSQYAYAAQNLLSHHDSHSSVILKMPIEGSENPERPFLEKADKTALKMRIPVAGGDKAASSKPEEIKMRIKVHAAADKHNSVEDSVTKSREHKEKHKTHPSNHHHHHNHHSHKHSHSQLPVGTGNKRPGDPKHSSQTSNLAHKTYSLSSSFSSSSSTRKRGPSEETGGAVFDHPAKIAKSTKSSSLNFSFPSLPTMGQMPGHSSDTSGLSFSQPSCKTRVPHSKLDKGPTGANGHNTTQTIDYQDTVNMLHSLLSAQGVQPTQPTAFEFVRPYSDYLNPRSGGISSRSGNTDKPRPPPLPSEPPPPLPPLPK
CDK1/CyclinB, sequence (P06493 whole entry): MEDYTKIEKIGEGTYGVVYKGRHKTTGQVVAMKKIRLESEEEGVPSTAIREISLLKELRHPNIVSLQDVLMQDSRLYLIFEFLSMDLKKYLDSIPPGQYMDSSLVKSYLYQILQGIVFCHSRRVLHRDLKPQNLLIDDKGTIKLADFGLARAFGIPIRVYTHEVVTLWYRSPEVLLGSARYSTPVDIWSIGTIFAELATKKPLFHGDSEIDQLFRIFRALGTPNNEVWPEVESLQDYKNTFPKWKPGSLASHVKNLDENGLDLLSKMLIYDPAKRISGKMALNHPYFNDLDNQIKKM
CDK1/CyclinB, sequence (P14635 whole entry partner): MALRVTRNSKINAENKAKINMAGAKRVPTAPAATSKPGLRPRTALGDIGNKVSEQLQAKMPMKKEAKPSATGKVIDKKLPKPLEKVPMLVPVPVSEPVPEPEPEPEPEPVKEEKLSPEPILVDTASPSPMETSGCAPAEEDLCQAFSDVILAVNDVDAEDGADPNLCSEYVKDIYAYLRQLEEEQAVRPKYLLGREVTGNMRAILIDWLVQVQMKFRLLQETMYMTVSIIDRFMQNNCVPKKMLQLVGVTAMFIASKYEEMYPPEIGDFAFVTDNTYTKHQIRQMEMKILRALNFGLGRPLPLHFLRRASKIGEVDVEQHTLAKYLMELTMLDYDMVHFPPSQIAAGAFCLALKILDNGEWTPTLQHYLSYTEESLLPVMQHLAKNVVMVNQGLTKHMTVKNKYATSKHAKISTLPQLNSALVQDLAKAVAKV
CDK4/CycD3, sequence (P11802 whole entry): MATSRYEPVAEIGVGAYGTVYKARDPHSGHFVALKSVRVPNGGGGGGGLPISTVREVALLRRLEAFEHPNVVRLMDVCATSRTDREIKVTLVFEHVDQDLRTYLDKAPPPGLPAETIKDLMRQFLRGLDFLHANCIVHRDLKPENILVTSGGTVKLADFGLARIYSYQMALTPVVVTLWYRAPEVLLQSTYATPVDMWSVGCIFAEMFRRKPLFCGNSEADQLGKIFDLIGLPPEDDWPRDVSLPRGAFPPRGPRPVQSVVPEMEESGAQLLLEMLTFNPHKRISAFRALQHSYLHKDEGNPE
CDK4/CycD3, sequence (P30281 whole entry partner): as the sequence (P30281 whole entry partner) above
CDK7/CyclinH/MAT1, sequence (P50613 whole entry): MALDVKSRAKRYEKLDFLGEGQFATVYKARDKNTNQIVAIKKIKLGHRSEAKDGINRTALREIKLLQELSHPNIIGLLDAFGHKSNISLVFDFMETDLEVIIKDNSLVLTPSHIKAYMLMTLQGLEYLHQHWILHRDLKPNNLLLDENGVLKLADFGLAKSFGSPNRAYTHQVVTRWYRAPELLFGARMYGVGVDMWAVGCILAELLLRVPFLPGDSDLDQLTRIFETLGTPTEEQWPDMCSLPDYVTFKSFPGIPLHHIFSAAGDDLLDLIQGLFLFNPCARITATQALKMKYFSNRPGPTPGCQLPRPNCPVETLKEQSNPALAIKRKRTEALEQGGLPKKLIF
CDK7/CyclinH/MAT1, sequence (P51946 whole entry partner): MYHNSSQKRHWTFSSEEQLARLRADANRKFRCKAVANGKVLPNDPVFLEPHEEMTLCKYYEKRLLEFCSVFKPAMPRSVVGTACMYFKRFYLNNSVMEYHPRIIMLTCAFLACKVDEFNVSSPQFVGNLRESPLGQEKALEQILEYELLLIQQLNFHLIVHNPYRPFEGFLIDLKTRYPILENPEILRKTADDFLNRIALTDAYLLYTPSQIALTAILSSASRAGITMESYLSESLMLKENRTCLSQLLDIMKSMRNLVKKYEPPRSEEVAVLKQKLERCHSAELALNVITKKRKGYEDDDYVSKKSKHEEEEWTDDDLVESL
CDK7/CyclinH/MAT1, sequence (P51948 whole entry partner): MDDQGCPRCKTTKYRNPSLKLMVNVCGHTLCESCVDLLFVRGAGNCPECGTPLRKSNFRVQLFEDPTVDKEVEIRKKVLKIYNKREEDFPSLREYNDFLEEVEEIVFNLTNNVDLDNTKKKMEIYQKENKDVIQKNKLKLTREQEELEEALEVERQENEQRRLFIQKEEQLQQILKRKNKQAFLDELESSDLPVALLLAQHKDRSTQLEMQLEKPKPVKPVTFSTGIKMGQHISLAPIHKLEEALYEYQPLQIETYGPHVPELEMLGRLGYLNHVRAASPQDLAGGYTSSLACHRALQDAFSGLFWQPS

SMILES	IC50 [1]	IC50 [2]	IC50 [3]	IC50 [4]	IC50 [5]	IC50 [6]
Cc1nc2c(F)cc(-c3nc(Nc4ccc(C(C)C5CCNCC5)cn4)ncc3F)cc2n1C(C)C (single isomer, unassigned) [Example 20, (R or S)-5-fluoro-4-(4-fluoro-1-isopropyl-2-methyl-1H-benzo[d]imidazol-6-yl)-N-(5-(1-(piperidin-4-yl)ethyl)pyridin-2-yl) pyrimidin-2-amine]	< 0.1 µM	1 to 10 µM	0.1 to 0.5 µM	0.1 to 0.5 µM	0.5 to 1 µM	0.5 to 1 µM
CCC(c1ccc(Nc2ncc(F)c(-c3cc(F)c4nc(C)n(C(C)C)c4c3)n2)nc1)N1CCN(CC)CC1 (single isomer, unassigned) [Example 3, (R or S)—N-(5-(1-(4-ethylpiperazin-1-yl)propyl)pyridin-2-yl)-5-fluoro-4-(4-fluoro-1-isopropyl-2-methyl-1H-benzo[d]imidazol-6-yl) pyrimidin-2-amine]	< 0.1 µM	1 to 10 µM	0.1 to 0.5 µM	10 to 100 µM	10 to 100 µM	10 to 100 µM
CC[C@H](c1ccc(Nc2ncc(F)c(-c3cc(F)c4nc(C)n(C(C)C)c4c3)n2)nc1)N1CCNCC1 [Example 5]	< 0.1 µM	1 to 10 µM	1 to 10 µM	10 to 100 µM	10 to 100 µM	10 to 100 µM
Cc1nc2c(F)cc(-c3nc(Nc4ccc([C@H](C)C5CCN(C6CC6)CC5)cn4)ncc3F)cc2n1C(C)C [Example 75]	< 0.1 µM	1 to 10 µM	< 0.1 µM	< 0.1 µM	0.1 to 0.5 µM	0.1 to 0.5 µM
Cc1nc2c(F)cc(-c3nc(Nc4ccc([C@@H](C)C5CCN(CC(F)(F)F)CC5)cn4)ncc3F)cc2n1C(C)C [Example 86]	< 0.1 µM	1 to 10 µM	0.1 to 0.5 µM	0.1 to 0.5 µM	0.1 to 0.5 µM	0.5 to 1 µM
Cc1nc2c(F)cc(-c3nc(Nc4ccc([C@H](O)C5CCNCC5)cn4)ncc3F)cc2n1C(C)C [Example 43]	< 0.1 µM	0.5 to 1 µM	0.1 to 0.5 µM	0.1 to 0.5 µM	0.1 to 0.5 µM	0.1 to 0.5 µM
Cc1nc2c(F)cc(-c3nc(Nc4ccc([C@H](C)C5CCN(CC(F)F)CC5)cn4)ncc3F)cc2n1C(C)C [Example 83]	< 0.1 µM	1 to 10 µM	< 0.1 µM	< 0.1 µM	0.1 to 0.5 µM	0.1 to 0.5 µM
CC[C@H](c1ccc(Nc2ncc(F)c(-c3cc(F)c4nc(C)n(C(C)C)c4c3)n2)nc1)C1CCN(CC)CC1 [Example 26]	0.1 to 0.5 µM	1 to 10 µM	0.1 to 0.5 µM	0.5 to 1 µM	0.5 to 1 µM	0.5 to 1 µM
CCN1CCC([C@@H](OC)c2ccc(Nc3ncc(F)c(-c4cc(F)c5nc(C)n(C(C)C)c5c4)n3)nc2)CC1 [Example 45]	< 0.1 µM	1 to 10 µM	0.1 to 0.5 µM	< 0.1 µM	0.1 to 0.5 µM	0.1 to 0.5 µM
Cc1nc2c(F)cc(-c3nc(Nc4ccc([C@H](C)C5CCN(CC(F)(F)F)CC5)cn4)ncc3F)cc2n1C(C)C [Example 85]	< 0.1 µM	1 to 10 µM	< 0.1 µM	< 0.1 µM	0.1 to 0.5 µM	0.1 to 0.5 µM
CC[C@@H](c1ccc(Nc2ncc(F)c(-c3cc(F)c4nc(C)n(C(C)C)c4c3)n2)nc1)C1CCN(CC)CC1 [Example 25]	0.1 to 0.5 µM	1 to 10 µM	0.1 to 0.5 µM	0.1 to 0.5 µM	0.5 to 1 µM	0.5 to 1 µM
CCN1CCC([C@H](OC)c2ccc(Nc3ncc(F)c(-c4cc(F)c5nc(C)n(C(C)C)c5c4)n3)nc2)CC1 [Example 46]	< 0.1 µM	1 to 10 µM	0.1 to 0.5 µM	< 0.1 µM	0.1 to 0.5 µM	0.1 to 0.5 µM
C=C(c1ccc(Nc2ncc(F)c(-c3cc(F)c4nc(C)n(C(C)C)c4c3)n2)nc1)N1CCN(CC)CC1 [Example 36]	0.1 to 0.5 µM	1 to 10 µM	0.1 to 0.5 µM	0.5 to 1 µM	0.5 to 1 µM	0.5 to 1 µM
Cc1nc2c(F)cc(-c3nc(Nc4ccc(C(C)C5CCNCC5)cn4)ncc3F)cc2n1C(C)C (single isomer, unassigned) [Example 19, (R or S)-5-fluoro-4-(4-fluoro-1-isopropyl-2-methyl-1H-benzo[d]imidazol-6-yl)-N-(5-(1-(piperidin-4-yl)ethyl)pyridin-2-yl) pyrimidin-2-amine]	0.1 to 0.5 µM	1 to 10 µM	< 0.1 µM	0.1 to 0.5 µM	0.1 to 0.5 µM	0.1 to 0.5 µM
Cc1nc2c(F)cc(-c3nc(Nc4ccc([C@@H](O)C5CCN(C)CC5)cn4)ncc3F)cc2n1C(C)C [Example 50]	< 0.1 µM	0.1 to 0.5 µM	0.1 to 0.5 µM	< 0.1 µM	0.1 to 0.5 µM	< 0.1 µM
